Measurements as given in PubChem BioAssay (NCI).
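Exposure lasted 48 hours, with cells grown in 96-well plates and compounds tested at five concentrations. Here, GI50 denotes the concentration required for 50% inhibition of growth. TGI denotes the concentration required for complete inhibition of growth.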

What was measured:
Test in all cases: growth of human tumour cells (NCI), 48 h
CCRF-CEM leukemia = system: CCRF-CEM leukemia
COLO 205 colon = system: COLO 205 colon
HCT-15 colon = system: HCT-15 colon
HOP-62 NSCLC = system: HOP-62 NSCLC
HT29 colon = system: HT29 colon
MALME-3M melanoma = system: MALME-3M melanoma
SNB-19 CNS = system: SNB-19 CNS
U251 CNS = system: U251 CNS
MDA-MB-231 breast = system: MDA-MB-231 breast
RXF 393 renal = system: RXF 393 renal

| Structure (SMILES) | TGI (CCRF-CEM leukemia) | TGI (COLO 205 colon) | TGI (HCT-15 colon) | TGI (HOP-62 NSCLC) | TGI (HT29 colon) | TGI (MALME-3M melanoma) | TGI (SNB-19 CNS) | TGI (U251 CNS) | GI50 (CCRF-CEM leukemia) | GI50 (COLO 205 colon) | GI50 (HCT-15 colon) | GI50 (HOP-62 NSCLC) | GI50 (HT29 colon) | GI50 (MALME-3M melanoma) | GI50 (MDA-MB-231 breast) | TGI (MDA-MB-231 breast) | GI50 (RXF 393 renal) | TGI (RXF 393 renal) | GI50 (U251 CNS) | GI50 (SNB-19 CNS) |
| --- | --- | --- | --- | --- | --- | --- | --- | --- | --- | --- | --- | --- | --- | --- | --- | --- | --- | --- | --- | --- |
| N#C/C(=C\c1ccc(C(O)P(=O)(O)O)cc1)C(N)=O (stereo not given) | > 100 µM | > 100 µM | > 100 µM | > 100 µM | > 100 µM | > 100 µM | > 100 µM | > 100 µM | – | – | – | – | – | – | – | – | – | – | – | – |
| Cn1cnc([N+](=O)[O-])c1Sc1nnnn1-c1ccccc1 | 7.12 µM | 20.7 µM | – | > 100 µM | 31.9 µM | 21.3 µM | > 100 µM | 26 µM | – | – | – | – | – | – | – | – | – | – | – | – |
| COc1ccc(N(/C=C/C(=O)C(F)(F)F)CC(=O)c2ccc(Cl)c(Cl)c2)cc1 | 18.3 µM | 39.6 µM | 21.4 µM | 30.9 µM | > 100 µM | > 100 µM | – | 25.3 µM | 3.39 µM | 20.2 µM | 7.66 µM | 16.9 µM | 29.8 µM | 39.7 µM | 14.4 µM | 38.6 µM | 36.3 µM | > 100 µM | 12.2 µM | – |
| N#Cc1c(N)nc(N2CCOCC2)c(C#N)c1-c1ccccc1Cl | > 100 µM | > 100 µM | > 100 µM | > 100 µM | > 100 µM | – | > 100 µM | > 100 µM | 45 µM | 38.1 µM | 41.4 µM | > 100 µM | 57 µM | – | 31.2 µM | > 100 µM | 17.5 µM | 72.3 µM | 50 µM | 48.5 µM |
| S=c1nc(N2CCCCC2)ss1 | 46.4 µM | – | 62.6 µM | 64.6 µM | 79.6 µM | 35.6 µM | 84.9 µM | 38 µM | – | – | – | – | – | – | – | – | – | 33.4 µM | – | – |
| O=c1c2cccnc2ncn1CCN1CCCC1 | > 100 µM | > 100 µM | – | > 100 µM | > 100 µM | > 100 µM | > 100 µM | > 100 µM | – | – | – | – | – | – | – | – | – | > 100 µM | – | – |
| NNC(=O)/C(NC(=O)c1ccccc1)=C(\N)c1ccc(Cl)cc1 | > 100 µM | > 100 µM | > 100 µM | > 100 µM | > 100 µM | > 100 µM | > 100 µM | > 100 µM | – | – | – | – | – | – | – | – | – | > 100 µM | – | – |
| CC1(O)CCC2(C#N)CCC1C2O (stereo not given) | > 100 µM | > 100 µM | > 100 µM | > 100 µM | > 100 µM | > 100 µM | > 100 µM | > 100 µM | – | – | – | – | – | – | – | – | – | > 100 µM | – | – |
| Cc1c2c(cc3c(=O)ccn(CCN(C)C)c13)c(=O)ccn2CCN(C)C | 27.9 µM | 24.7 µM | 24.1 µM | 29.1 µM | – | 69.1 µM | 35.7 µM | 23 µM | – | – | – | – | – | – | – | – | – | 28.9 µM | – | – |
| Nc1nc(-c2cccc([N+](=O)[O-])c2)cc(-c2cc(-c3cccc([N+](=O)[O-])c3)nc(N)n2)n1 | – | > 100 µM | > 100 µM | > 100 µM | > 100 µM | > 100 µM | > 100 µM | > 100 µM | – | – | – | – | – | – | – | > 100 µM | – | > 100 µM | – | – |
| COc1cc2c(c(OC)c1OC)-c1ccc(OC)c(=O)cc1[C@@H](N(C)C=O)CC2 | > 100 µM | 0.0251 µM | > 100 µM | > 100 µM | > 100 µM | > 100 µM | > 100 µM | > 4.68 µM | – | – | – | – | – | – | – | – | – | – | – | – |
| Cc1nc(C(N)=S)sc1C(=O)C/C(=N/N)C(=O)Nc1ccc(Cl)cc1 | – | – | – | > 100 µM | > 100 µM | > 100 µM | > 100 µM | > 100 µM | – | – | – | – | – | – | – | > 100 µM | – | > 100 µM | – | – |
| O=C1CCS/C(=N\S(=O)(=O)c2ccc(N3N=C4c5ccccc5CC4C3c3cccs3)cc2)N1C(=O)c1ccccc1 (stereo not given) | 42.7 µM | > 100 µM | 31.3 µM | > 100 µM | > 100 µM | – | > 100 µM | 17.4 µM | 15 µM | 66.5 µM | 15.1 µM | 31.1 µM | 39.6 µM | – | 5.77 µM | 26.8 µM | 6.31 µM | 33 µM | 4.5 µM | 45.7 µM |
| CCOC(=O)/C(=C\c1ccc[nH]1)C(=O)c1ccccc1 | > 100 µM | > 100 µM | > 100 µM | > 100 µM | > 100 µM | > 100 µM | > 100 µM | > 100 µM | – | – | – | – | – | – | – | – | – | > 100 µM | – | – |
| CCC(C(=O)c1ccccc1)C(CCCC(=O)Nc1c(C)cccc1C)N=O (stereo not given) | > 100 µM | > 100 µM | > 100 µM | > 100 µM | > 100 µM | > 100 µM | > 100 µM | > 100 µM | – | – | – | – | – | – | – | – | – | – | – | – |
| C1COCCOCCOCCOCCO1.CC(=O)[CH-]C(C)=O.CC(=O)[CH-]C(C)=O.CC(=O)[CH-]C(C)=O.[V] | 41.3 µM | 35.1 µM | 57.9 µM | – | 37.4 µM | 16.4 µM | 32.6 µM | 52.8 µM | 19.1 µM | 18.7 µM | 20.7 µM | – | 19.1 µM | 2.99 µM | – | – | 1.63 µM | 3.26 µM | 20.6 µM | 15.3 µM |
| CC(C)C(=O)/C=C/c1ccc(Cl)c(Cl)c1 | 81.7 µM | 52.3 µM | – | – | 43.8 µM | – | 28.5 µM | 30.7 µM | – | – | – | – | – | – | – | – | – | 33.5 µM | – | – |
| N#CC1CC2(C(=O)C1=O)c1ccccc1-c1ccccc12 (stereo not given) | > 100 µM | > 100 µM | > 100 µM | > 100 µM | > 100 µM | > 100 µM | > 100 µM | > 100 µM | – | – | – | – | – | – | – | – | – | > 100 µM | – | – |
| Cc1cc2cn3c4cccnc4[nH]c(=O)c3c2cc1C | – | 3.18 µM | 2.87 µM | 2.85 µM | – | – | – | – | – | 1.65 µM | 1.41 µM | 1.5 µM | – | – | – | – | 1.46 µM | 2.88 µM | – | – |
| CC/C=C/c1cc2cc[nH]c2c2c1C(C)C[C@@H]2C (stereo not given in full) | 61.9 µM | 37.6 µM | 82.5 µM | – | 82.2 µM | > 100 µM | – | 51.2 µM | – | – | – | – | – | – | – | – | – | 41.3 µM | – | – |
| C=CCn1cc(C(=O)NC(=O)NCCCCCOC(=O)CCCCCCCCCCC(=O)OCCCCCNC(=O)NC(=O)c2cn(CC=C)c(=O)n(C)c2=O)c(=O)n(C)c1=O | > 100 µM | > 100 µM | > 100 µM | > 100 µM | > 100 µM | > 100 µM | > 100 µM | > 100 µM | – | – | – | – | – | – | – | – | – | > 100 µM | – | – |
| c1ccc(COC2(OCc3ccccc3)CC3OC2C2NN=NC32)cc1 (stereo not given) | 33.1 µM | > 100 µM | 90.6 µM | > 100 µM | 46.5 µM | 52.6 µM | – | 32.6 µM | – | – | – | – | – | – | – | – | – | > 100 µM | – | – |
